In patent publication US20090227619A1, “Harmine derivatives, intermediates used in their preparations, preparation processes and use therefo” (priority 2003, published 2009):
Where two headings read alike, the source gives them in different places.

Assays:
[1] = test system: Hela; assay: In vitro cytotoxicity, IC50 by MTT method, Hela; type: cell-based; settings: Homo sapiens
Protocol: (§1) Culture medium powder RPMI1640 was dissolved in a proper amount of tri-distilled water according to the instruction of the product. […] It was the basic culture solution. The complete culture solution was added with FBS having a final concentration of 10%, 100 U/ml penicillin and 100 µg/ml streptomycin. The solution was fully stirred by a magnetic blender, and the pH of the solution was adjusted to 6.8-7.0. The volume was kept constant. After being filtered and disinfected, the solution was kept into several containers which were sealed and stored at 4° C.
(§2) The cells were placed in a culture dish followed by the addition of complete culture liquid RPMI1640 and then cultured in a incubator comprising 5% CO2 at 37° C. In the exponential growth phase, the cells grew vigorously. If the culture liquid became yellow, the liquid should be replaced instantly.
(§3) The cells, at a concentration of 10^5/ml, were inoculated at a 96-pore culture plate. In each pore, 100 μl cells were inoculated. The cells were placed in a CO2 incubator until the cells were in the logarithmic growth phase. The samples to be tested were added according to the preset concentration gradient. For each gradient, the test was conducted at least three times. An equivalent amount of solvent for dissolving the samples was added in the control group. After 48 h of culture, each pore was added 20 μl MTT (5 mg/ml). The cells were cultured at 37° C. for 4 h. After the supernatant was carefully removed, 100 μl DMSO was added in each pore. The plate was agitated for about 10 minutes such that the precipitates were dissolved. After that, OD value was identified with a Microplate Reader at the wavelength of 490 nm. The survival rate of the cells at various concentrations was calculated according to the following formula:
(§4) Survival rate %=average OD value of the sample group/average OD value of the control group×100%
(§5) Plots of log survival rate of the cells vs. concentration of the medicament were constructed, and the IC50 value of each sample was calculated according to graphing methods.

[2] = test system: BGC-823; assay: In vitro cytotoxicity, IC50 by MTT method, BGC-823; type: cell-based; settings: Homo sapiens, BGC-823
Protocol: as §1, §2, §3, §4, §5

[3] = test system: HepG2; assay: In vitro cytotoxicity, IC50 by MTT method, HepG2; type: cell-based, human; settings: Homo sapiens
Protocol: as §1, §2, §3, §4, §5

[4] = test system: Bel-7402; assay: In vitro cytotoxicity, IC50 by MTT method, Bel-7402; type: cell-based; settings: Homo sapiens, Bel-7402
Protocol: as §1, §2, §3, §4, §5

[5] = test system: NIH3T3; assay: In vitro cytotoxicity, IC50 by MTT method, NIH3T3; type: cell-based; settings: Mus musculus
Protocol: as §1, §2, §3, §4, §5

[6] = test system: Lovo; assay: In vitro cytotoxicity, IC50 by MTT method, Lovo; type: cell-based; settings: Homo sapiens
Protocol: as §1, §2, §3, §4, §5

[7] = test system: S180 sarcoma; settings: S180 sarcoma; for Body weight of the animals, beginning, First time / Body weight of the animals, end, First time / Inhibition rate, First time / Weight of the tumor X ± SD, First time: ip × 10qd; for Inhibition rate (%) S180 sarcomata: comparison table 43, in vivo
[8] = test system: PLA-801; assay: In vitro cytotoxicity, IC50 by MTT method, PLA-801; type: cell-based
Protocol: as §1, §2, §3, §4, §5

[9] = test system: Lewis lung cancer; settings: for Anti-tumor activity compared with harmine (compound 1): Lewis lung cancer in mice, among 22 compounds tested; for Body weight of the animals, end, First time / Body weight of the animals, beginning, First time / Inhibition rate, First time / Weight of the tumor X ± SD, First time / Inhibition rate (%) Lewis cancer: Lewis lung cancer; for Body weight of the animals, end, First time: ip × 10qd; for Inhibition rate (%) Lewis cancer: comparison table 43, in vivo;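 for all read-outs here: mice implanted subcutaneously in the axilla with Lewis lung tumor cells, treated starting the following day, killed roughly three weeks after implantation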

Row | SMILES | IC50 ([1]; Hela, MTT, read-out: IC50) | IC50 ([2]; BGC823, MTT, read-out: IC50) | Body weight of the animals, beginning, First time ([7]; Dosage 50 (mg/ml)) | Body weight of the animals, end, First time ([7]; Dosage 50 (mg/ml)) | Inhibition rate, First time ([7]; Dosage 50 (mg/ml)) | Weight of the tumor X ± SD, First time ([7]; Dosage 50 (mg/ml)) | Body weight of the animals, beginning, First time ([7]; Dosage 100 (mg/ml)) | Body weight of the animals, end, First time ([7]; Dosage 100 (mg/ml)) | Inhibition rate, First time ([7]; Dosage 100 (mg/ml)) | Weight of the tumor X ± SD, First time ([7]; Dosage 100 (mg/ml)) | Inhibition rate (%) S180 sarcomata [7] | Body weight of the animals, end, First time ([9]; Dosage 50 (mg/ml)) | Body weight of the animals, beginning, First time ([9]; Dosage 50, ip × 10qd) | Inhibition rate, First time ([9]; Dosage 50, ip × 10qd) | Weight of the tumor X ± SD, First time ([9]; Dosage 50, ip × 10qd) | Body weight of the animals, end, First time ([9]; Dosage 100 (mg/ml)) | Body weight of the animals, beginning, First time ([9]; Dosage 100, ip × 10qd) | Inhibition rate, First time ([9]; Dosage 100, ip × 10qd) | Weight of the tumor X ± SD, First time ([9]; Dosage 100, ip × 10qd) | Inhibition rate (%) Lewis cancer [9] | also measured
1 | COC(=O)c1cc2c([nH]c3ccccc32)c(-c2ccccc2)n1 [Compound 14, methyl 1-phenyl-β-carboline-3-carboxylate] | 320 µM | 1680 µM | 19.8 g | 26.7 g | 24.43% | 1.98 ± 0.28 g | 19.9 g | 25.5 g | 32.06% | 1.78 ± 0.20 g | 34.16% | 23.8 g | 20.1 g | 27.57% | 1.76 ± 0.25 g | 23.1 g | 20.7 g | 34.16% | 1.60 ± 0.19 g | 32.06% | IC50 ([3]; HepG2, MTT, read-out: IC50): 1180 µM; IC50 ([4]; BeI7402, MTT, read-out: IC50): > 5000 µM; IC50 ([5]; NIH3T3, MTT, read-out: IC50): 490 µM; IC50 ([6]; Lovo, MTT, read-out: IC50): 2480 µM; IC50 ([8]; PLA-801, MTT, read-out: IC50): 1900 µM; Anti-tumor activity compared with harmine (compound 1) [9]: a little worse than or equivalent to that of harmines
2 | COC(=O)c1cc2c([nH]c3ccccc32)c(-c2ccc(OC)cc2)n1 [Compound 15, methyl 1-(4-methoxyphenyl)-β-carboline-3-carboxylate] | > 3000 µM | > 3000 µM | 19.8 g | 26.4 g | 23.66% | 2.00 ± 0.16 g | 19.9 g | 26.0 g | 35.50% | 1.69 ± 0.16 g | 32.10% | 23.9 g | 20.4 g | 25.51% | 1.81 ± 0.28 g | 24.0 g | 20.3 g | 32.10% | 1.65 ± 0.17 g | 35.50% | IC50 ([3]; HepG2, MTT, read-out: IC50): > 3000 µM; IC50 ([4]; BeI7402, MTT, read-out: IC50): > 3000 µM; IC50 ([5]; NIH3T3, MTT, read-out: IC50): > 3000 µM; IC50 ([6]; Lovo, MTT, read-out: IC50): > 3000 µM; IC50 ([8]; PLA-801, MTT, read-out: IC50): > 3000 µM; Anti-tumor activity compared with harmine (compound 1) [9]: a little worse than or equivalent to that of harmines
3 | CCOC(=O)c1cc2c3ccccc3n(CC)c2cn1 [Compound 31, ethyl 9-ethyl-β-carboline-3-carboxylate] |  |  | 19.7 g | 26.7 g | 28.04% | 1.88 ± 0.21 g | 20.0 g | 26.1 g | 37.02% | 1.65 ± 0.16 g | 36.21% | 24.3 g | 20.6 g | 30.04% | 1.70 ± 0.12 g | 23.7 g | 20.5 g | 36.21% | 1.55 ± 0.22 g | 37.02% | IC50 ([1]; Hela cell strain, read-out: IC50 Hela): 140 µM; IC50 ([2]; BGC823 cell strain, read-out: IC50 BGC823): 140 µM; IC50 ([3]; HepG2 cell strain, read-out: IC50 HepG2): 110 µM; IC50 ([4]; Bel7402 cell strain, read-out: IC50 Bel7402): 260 µM; IC50 ([5]; NIH3T3 cell strain, read-out: IC50 NIH3T3): 100 µM; IC50 ([6]; Lovo cell strain, read-out: IC50 Lovo): 70 µM; IC50 ([8]; PLA-801 cell strain, read-out: IC50 PLA-801): 170 µM
